According to paper PMC4580985, “Calcium ions open a selectivity filter gate during activation of the MthK potassium channel” (Nature Communications, 2015):

Target: T1, MthK (Methanothermobacter thermautotrophicus, UniProt O27564)
T1 construct: MthK channel with pore and cytosolic gating ring (RCK), purified in decyl maltoside, Superdex 200, reconstituted in DOPC:POPG 3:1 liposomes
Assay: stopped-flow Tl+ flux (ANTS quench) in MthK liposomes, blocker equilibration time course
Assay type: biochemical
Conditions: read-out: KD^ap
Text: stopped-flow Tl+ flux (ANTS quench) in MthK liposomes, blocker equilibration time course on MthK

| Kd | SMILES |
| --- | --- |
| 700 ± 200 nM | CCCC[N+](CCCC)(CCCC)Cc1ccc(C(=O)c2ccccc2)cc1 [bbTBA, N-(4-[benzoyl]benzyl)-N,N,N-tributylammonium] |
| 2100 ± 200 nM | CCCCC[N+](CCCCC)(CCCCC)CCCCC [TPeA] |
| 2600 ± 400 nM | CCCC[N+](CCCC)(CCCC)Cc1ccc(Br)cc1 [Br-bTBA, 4-bromobenzyltributylammonium bromide] |
